Results: patent publication US10787450B2 (BRISTOL-MYERS SQUIBB COMPANY, priority 2016, dated 2020)

Molecular target: ROCK2 (Homo sapiens (Human), UniProt O75116)
Assay: ROCK2 kinase inhibition assay (FITC peptide substrate, LABCHIP 3000 Reader)
Format: biochemical
Settings: 5 μM ATP, 1.5 μM peptide substrate
Procedure, shortened: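 Reaction in 20 mM HEPES pH 7.5, 20 mM MgCl2, 0.015% Brij-35, 4 mM DTT with 5 μM ATP and 1.5 μM FITC-AHA-AKRRRLSSLRA-OH peptide, started with Rho kinase, DMSO <2%. EDTA-stopped; phospho and non-phospho peptide separated by mobility shift. IC50 from dose-response curve fit.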

Sequence of ROCK2 (O75116 whole entry, species assumed): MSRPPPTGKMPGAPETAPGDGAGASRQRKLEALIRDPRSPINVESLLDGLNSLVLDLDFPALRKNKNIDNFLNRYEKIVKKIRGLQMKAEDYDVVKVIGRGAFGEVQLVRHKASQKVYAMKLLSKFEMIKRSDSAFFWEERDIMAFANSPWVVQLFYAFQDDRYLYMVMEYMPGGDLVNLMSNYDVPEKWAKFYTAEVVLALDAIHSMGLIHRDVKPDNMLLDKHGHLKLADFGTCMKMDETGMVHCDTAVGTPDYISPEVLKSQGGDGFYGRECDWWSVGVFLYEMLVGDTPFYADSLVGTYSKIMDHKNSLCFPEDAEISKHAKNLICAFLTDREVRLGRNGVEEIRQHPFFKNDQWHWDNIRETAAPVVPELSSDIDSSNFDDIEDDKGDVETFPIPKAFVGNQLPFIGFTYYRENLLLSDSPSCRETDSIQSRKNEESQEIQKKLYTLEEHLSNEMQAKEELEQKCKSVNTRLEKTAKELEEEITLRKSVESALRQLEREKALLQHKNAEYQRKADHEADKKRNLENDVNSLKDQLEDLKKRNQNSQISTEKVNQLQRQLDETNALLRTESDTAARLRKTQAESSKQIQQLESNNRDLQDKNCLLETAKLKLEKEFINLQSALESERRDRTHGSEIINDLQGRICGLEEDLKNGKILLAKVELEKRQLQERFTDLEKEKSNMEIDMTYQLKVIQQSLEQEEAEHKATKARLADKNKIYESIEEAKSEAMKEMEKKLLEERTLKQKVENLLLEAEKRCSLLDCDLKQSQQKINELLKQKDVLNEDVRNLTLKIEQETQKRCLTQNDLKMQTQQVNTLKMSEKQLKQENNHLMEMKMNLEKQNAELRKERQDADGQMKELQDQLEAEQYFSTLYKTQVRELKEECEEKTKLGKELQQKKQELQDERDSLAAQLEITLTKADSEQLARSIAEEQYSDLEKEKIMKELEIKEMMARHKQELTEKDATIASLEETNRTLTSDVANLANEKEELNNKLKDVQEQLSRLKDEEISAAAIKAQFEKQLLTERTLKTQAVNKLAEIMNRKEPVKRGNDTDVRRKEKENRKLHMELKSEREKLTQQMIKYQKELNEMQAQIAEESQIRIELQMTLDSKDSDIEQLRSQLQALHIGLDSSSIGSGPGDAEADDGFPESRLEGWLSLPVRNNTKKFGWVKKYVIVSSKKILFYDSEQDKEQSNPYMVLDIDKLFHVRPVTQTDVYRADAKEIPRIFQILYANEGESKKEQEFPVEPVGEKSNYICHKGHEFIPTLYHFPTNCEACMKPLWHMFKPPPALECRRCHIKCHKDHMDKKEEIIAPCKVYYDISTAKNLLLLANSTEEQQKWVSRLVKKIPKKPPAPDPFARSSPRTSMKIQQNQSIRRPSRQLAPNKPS

IC50 | Compound
< 3 nM | COc1cccc(CN2C(=O)N(c3ccc(-c4cn[nH]c4)cc3)CC23CCN(CC(C)C)CC3)c1 [Example 124, 3-(4-(1H-pyrazol-4-yl)phenyl)-8-isobutyl-1-(3-methoxybenzyl)-1,3,8-triazaspiro[4.5]decan-2-one]
< 3 nM | COc1cc(F)cc(CN2C(=O)N(c3ccc(-c4cn[nH]c4)cc3)CC23CCN(C2COC2)CC3)c1 [Example 236, 3-(4-(1H-pyrazol-4-yl)phenyl)-1-(3-fluoro-5-methoxy-benzyl)-8-(oxetan-3-yl)-1,3,8-triazaspiro [4.5]decan-2-one]
< 3 nM | CCc1nc(N2CC3(CCN(CCO)CC3)N(Cc3cc(F)cc(OC)c3)C2=O)ccc1-c1cn[nH]c1 [Example 153, 3-(6-ethyl-5-(1H-pyrazol-4-yl)pyridin-2-yl)-1-(3-fluoro-5-methoxybenzyl)-8-(2-hydroxyethyl)-1,3,8-triazaspiro[4.5]decan-2-one]
< 3 nM | COCCN1CCC2(CC1)CN(c1ccc(-c3cn[nH]c3)cn1)C(=O)N2Cc1cccc(OC)c1 [Example 162, 3-(5-(1H-pyrazol-4-yl)pyridin-2-yl)-1-(3-methoxybenzyl)-8-(2-methoxyethyl)-1,3,8-triazaspiro[4.5]decan-2-one]
30 to 250 nM | N#Cc1cccc(CN2C(=O)N(c3ccc(-c4cn[nH]c4)cc3)CC23CCOCC3)c1 [Example 14, 3-((3-(4-(1H-pyrazol-4-yl)phenyl)-2-oxo-8-oxa-1,3-diazaspiro[4.5]decan-1-yl)methyl)benzonitrile]
< 3 nM | COc1cccc(CN2C(=O)N(c3ccc(-c4cn[nH]c4)cc3)CC23CCN(C(=O)C2CCC2)CC3)c1 [Example 172, 3-(4-(1H-pyrazol-4-yl)phenyl)-8-(cyclobutanecarbonyl)-1-(3-methoxybenzyl)-1,3,8-triazaspiro[4.5]decan-2-one]
3 to 30 nM | Cc1c(F)cccc1CN1C(=O)N(c2ccc(-c3cn[nH]c3)cc2)CC12CCN(C(=O)C1(C)COC1)CC2 [Example 189, 3-(4-(1H-pyrazol-4-yl)phenyl)-1-(3-fluoro-2-methylbenzyl)-8-(3-methyloxetane-3-carbonyl)-1,3,8-triazaspiro[4.5]decan-2-one]
< 3 nM | COc1cccc(CN2C(=O)N(c3ccc(-c4cn[nH]c4)cc3)CC23CCN(CC2CCOCC2)CC3)c1 [Example 233, 3-(4-(1H-pyrazol-4-yl)phenyl)-1-(3-methoxy-benzyl)-8-((tetrahydro-2H-pyran-4-yl)methyl)-1,3,8-triazaspiro [4.5]decan-2-one]
< 3 nM | COc1cc(F)cc(CN2C(=O)N(c3ccc(-c4cn[nH]c4)cc3)CC23CCN(CCO)CC3)c1 [Example 144, 3-(4-(1H-pyrazol-4-yl)phenyl)-1-(3-fluoro-5-methoxybenzyl)-8-(2-hydroxyethyl)-1,3,8-triazaspiro[4.5]decan-2-one]
< 3 nM | COc1cccc(CN2C(=O)N(c3ccc(-c4cn[nH]c4)cc3)CC23CC3)c1 [Example 1, 6-(4-(1H-pyrazol-4-yl)phenyl)-4-(3-methoxybenzyl)-4,6-diazaspiro[2.4]heptan-5-one]
250 to 3000 nM | COc1cccc(NC2C(=O)N(c3ccc(-c4cn[nH]c4)cc3)CC23CN(C(C)=O)C3)c1 (centres unmarked) [Example 244, 6-(4-(1H-pyrazol-4-yl)phenyl)-2-acetyl-8-((3-methoxy-phenyl)amino)-2,6-diazaspiro [3.4]octan-7-one]
< 3 nM | COc1cccc(CN2C(=O)N(c3ccc(-c4cn[nH]c4)c(OC)n3)CC23CCN(C(=O)CN(C)C)CC3)c1 [Example 218, 8-(2-(dimethylamino)acetyl)-3-(6-methoxy-5-(1H-pyrazol-4-yl)pyridin-2-yl)-1-(3-methoxybenzyl)-1,3,8-triazaspiro[4.5]decan-2-one]
3 to 30 nM | COc1cccc(CN2C(=O)N(c3ccc(-c4cn[nH]c4)cc3)CC23CCN(C(=O)OCC(C)(C)C)CC3)c1 [Example 97, neopentyl 3-(4-(1H-pyrazol-4-yl)phenyl)-1-(3-methoxybenzy1)-2-oxo-1,3,8-triazaspiro[4.5]decane-8-carboxylate]
< 3 nM | CCc1nc(N2CC3(CCN(C(=O)CO)CC3)N(Cc3cccc(F)c3C)C2=O)ccc1-c1cn[nH]c1 [Example 181, 3-(6-ethyl-5-(1H-pyrazol-4-yl)pyridin-2-yl)-1-(3-fluoro-2-methylbenzyl)-8-(2-hydroxyacetyl)-1,3,8-triazaspiro[4.5]decan-2-one]
3 to 30 nM | COc1cccc(CN2C(=O)N(c3ccc(-c4cn[nH]c4)cc3)CC23CCN(C(=O)OC(C)(C)C)CC3)c1 [Example 48, tert-butyl 3-(4-(1H-pyrazol-4-yl)phenyl)-1-(3-methoxybenzyl)-2-oxo-1,3,8-triazaspiro[4.5]decane-8-carboxylate]
30 to 250 nM | O=C1N(c2ccc(-c3cn[nH]c3)cc2)CC2(CCOCC2)N1Cc1ccc(F)cc1F [Example 22, 3-(4-(1H-pyrazol-4-yl)phenyl)-1-(2,4-difluorobenzyl)-8-oxa-1,3-diazaspiro[4.5]decan-2-one]

IC50 | Compound
3 to 30 nM | O=C1N(c2ccc(-c3cn[nH]c3)cc2)CC2(CCOCC2)N1Cc1cccc(OCC2CC2)c1 [Example 11, 3-(4-(1H-pyrazol-4-yl)phenyl)-1-(3-(cyclopropylmethoxy)benzyl)-8-oxa-1,3-diazaspiro[4.5]decan-2-one]
3 to 30 nM | O=C1N(c2ccc(-c3cn[nH]c3)cc2)CC2(CCOCC2)N1Cc1cccc(F)c1 [Example 13, 3-(4-(1H-pyrazol-4-yl)phenyl)-1-(3-fluorobenzyl)-8-oxa-1,3-diazaspiro[4.5]decan-2-one]
< 3 nM | COc1cccc(CN2C(=O)N(c3ccc(-c4cn[nH]c4)cc3)CC23CCN(C(N)=O)CC3)c1 [Example 92, 3-(4-(1H-pyrazol-4-yl)phenyl)-1-(3-methoxybenzyl)-2-oxo-1,3,8-triazaspiro[4.5]decane-8-carboxamide]
< 3 nM | COc1cccc(CN2C(=O)N(c3ccc(-c4cn[nH]c4)cn3)CC23CCN(C2COC2)CC3)c1 [Example 237, 3-(5-(1H-pyrazol-4-yl)pyridin-2-yl)-1-(3-methoxy-benzyl)-8-(oxetan-3-yl)-1,3,8-triazaspiro [4.5]decan-2-one]
3 to 30 nM | COCCN1CCC2(CC1)CN(c1ccc(-c3cn[nH]c3)cc1)C(=O)N2Cc1cccc(OC)c1 [Example 142, 3-(4-(1H-pyrazol-4-yl)phenyl)-1-(3-methoxybenzyl)-8-(2-methoxyethyl)-1,3,8-triazaspiro[4.5]decan-2-one]
< 3 nM | COc1cccc(CN2C(=O)N(c3ccc(-c4cn[nH]c4)c(OC)n3)CC23CCN(CC(C)(C)O)CC3)c1 [Example 148, 8-(2-hydroxy-2-methylpropyl)-3-(6-methoxy-5-(1H-pyrazol-4-yl)pyridin-2-yl)-1-(3-methoxybenzyl)-1,3,8-triazaspiro[4.5]decan-2-one]
250 to 3000 nM | COc1cccc(NC2C(=O)N(c3ccc(-c4cn[nH]c4)cn3)CC23CCN(C(=O)CC(C)c2ccccc2)CC3)c1 (centres unmarked) [Example 254, 2-(5-(1H-pyrazol-4-yl)pyridin-2-yl)-4-((3-methoxy-phenyl)amino)-8-(3-phenyl-butanoyl)-2,8-diazaspiro [4.5]decan-3-one]
< 3 nM | CCc1nc(N2CC3(CCN(C(=O)COC)CC3)N(Cc3cccc(OC)c3)C2=O)ccc1-c1cn[nH]c1 [Example 206, 3-(6-ethyl-5-(1H-pyrazol-4-yl)pyridin-2-yl)-8-(2-methoxyacetyl)-1-(3-methoxybenzyl)-1,3,8-triazaspiro[4.5]decan-2-one]
30 to 250 nM | CNC(=O)c1cccc(CN2C(=O)N(c3ccc(-c4cn[nH]c4)cc3)CC23CCOCC3)c1 [Example 31, 3-((3-(4-(1H-pyrazol-4-yl)phenyl)-2-oxo-8-oxa-1,3-diazaspiro[4.5]decan-1-yl)methyl)-N-methylbenzamide]
3 to 30 nM | CC(=O)N1CCC2(CC1)CN(c1ccc(-c3cn[nH]c3)cc1)C(=O)N2Cc1cc(F)ccc1C [Example 83, 3-(4-(1H-pyrazol-4-yl)phenyl)-8-acetyl-1-(5-fluoro-2-methylbenzyl)-1,3,8-triazaspiro[4.5]decan-2-one]
3 to 30 nM | O=C1N(c2ccc(-c3cn[nH]c3)cc2)CC2(CCNCC2)N1Cc1ccccc1F [Example 63, 3-(4-(1H-pyrazol-4-yl)phenyl)-1-(2-fluorobenzyl)-1,3,8-triazaspiro[4.5]decan-2-one]
< 3 nM | COc1cccc(CN2C(=O)N(c3ccc(-c4cn[nH]c4)cc3)CC23CCN(CC2CCC(F)(F)CC2)CC3)c1 [Example 231, 3-(4-(1H-pyrazol-4-yl)phenyl)-8-((4,4-difluorocyclohexyl)methyl)-1-(3-methoxybenzyl)-1,3,8-triazaspiro[4.5]decan-2-one]
250 to 3000 nM | COc1cccc(NC2C(=O)N(c3ccc(-c4cn[nH]c4)cc3)CC23CN(C(=O)C(C)(C)O)C3)c1 (centres unmarked) [Example 246, 6-(4-(1H-pyrazol-4-yl)phenyl)-2-(2-hydroxy-2-methylpro-panoyl)-8-((3-methoxy-phenyl)amino)-2,6-diazaspiro [3.4]octan-7-one]
< 3 nM | Cc1c(F)cccc1CN1C(=O)N(c2ccc(-c3cn[nH]c3)cc2)CC12CCN(CCO)CC2 [Example 143, 3-(4-(1H-pyrazol-4-yl)phenyl)-1-(3-fluoro-2-methylbenzyl)-8-(2-hydroxyethyl)-1,3,8-triazaspiro[4.5]decan-2-one]
250 to 3000 nM | O=C1N(c2ccc(-c3cn[nH]c3)cc2)CC2(CCNCC2)N1CC1CCOCC1 [Example 72, 3-(4-(1H-pyrazol-4-yl)phenyl)-1-((tetrahydro-2H-pyran-4-yl)methyl)-1,3,8-triazaspiro[4.5] decan-2-one]
< 3 nM | COc1cc(F)cc(CN2C(=O)N(c3ccc(-c4cn[nH]c4)cc3)CC23CCN(C(=O)C(C)(C)O)CC3)c1 [Example 190, 3-(4-(1H-pyrazol-4-yl)phenyl)-1-(3-fluoro-5-methoxybenzyl)-8-(2-hydroxy-2-methylpropanoyl)-1,3,8-triazaspiro[4.5] decan-2-one]
